According to ChEMBL document CHEMBL1157539, “Thousands of chemical starting points for antimalarial lead identification” (Nature, 2010):

These compounds were tested on Plasmodium falciparum (assay: GSK_TCMDC: Inhibition of Plasmodium falciparum 3D7 in whole erythrocytes, using parasite LDH activity as an index of growth.). Details: Plasmodium falciparum, 3D7.
Type: functional, organism-based

Compared with `COc1ccc2c(N/N=C/c3ccc([N+](=O)[O-])cc3)ccnc2c1`, `Clc1ccc2c(NN=Cc3cccs3)ccnc2c1` is 2.7-fold higher in XC50: 337 nM for the first, 922 nM for the second.

`COc1c(C)[nH]c(C)c(-c2ccc(Oc3cccc(C(F)(F)F)c3)cc2)c1=O` and `Cc1[nH]c(C)c(-c2ccc(-c3ccccc3F)nc2)c(=O)c1Br` are within 1.5-fold of each other in XC50: 314 nM for the first, 401 nM for the second.

Going from `COc1ccc2nc(C)cc(Nc3ccc(Oc4ccc(Cl)cc4)c(Cl)c3)c2c1` to `COc1ccc2ccc(OC)c(CNCCCCCCNCc3c(OC)ccc4ccc(OC)cc34)c2c1`, the XC50 rises from 191 nM to 699 nM (3.7-fold).

`CCCCCCN1CCC(CNCc2cccc([N+](=O)[O-])c2)CC1` and `O=C(Nc1ccc2ccccc2c1)N1CCC(NCc2cccc([N+](=O)[O-])c2)CC1` are within 1.5-fold of each other in XC50: 720 nM for the first, 855 nM for the second.

`CC[C@H](N/C(=N\c1cccc(Cl)c1Cl)Nc1ccc(C#N)cc1O)c1ccccc1` and `CN(C)CCNC(=O)[C@H](Cc1ccccc1)NC(=O)c1ccc(O)c(-c2ccc(Cl)c(Cl)c2)c1` are within 1.5-fold of each other in XC50: 815 nM for the first, 715 nM for the second.

`Cc1cc(NCCC(=O)Nc2ccccc2)nc(NCCc2ccccc2)n1` and `CC(CNc1nc(NCC(c2ccccc2)c2ccccc2)c2nc[nH]c2n1)c1ccccc1` (stereo unspecified) are within 1.5-fold of each other in XC50: 852 nM for the first, 948 nM for the second.

First: Cc1cc(N2CCCC2)nc(Nc2ccc(NC(=O)C(C)Oc3ccccc3)cc2)n1 (stereo unspecified)
Second: Cc1ccc(Nc2nc(C)cc(NC3CCN(C)CC3)n2)cc1
The XC50 of the first is 2.3-fold higher: 1140 nM for the first, 497 nM for the second.

`CNC(=O)c1cc(NCCCNCc2ccc(Cl)c(C(F)(F)F)c2)nc2ccccc12` and `CS(=O)(=O)NCCCNCc1cccc(-c2csc(-c3nc4ccccc4[nH]3)c2)c1` are within 1.5-fold of each other in XC50: 931 nM for the first, 1010 nM for the second.

`Cc1cc(N[C@@H](Cc2ccccc2)C(=O)NC2CCCC2)nc(NCC2CCCCC2)n1` and `Cc1cc(NC2CCCC2)nc(Nc2ccccc2C)n1` are within 1.5-fold of each other in XC50: 1170 nM for the first, 1350 nM for the second.

First: Cc1ccc2nc3ccccc3c(NCCN3CCN(C)CC3)c2c1
Second: CN1CCN(CCCN(C(=O)Nc2cc(C(F)(F)F)cc(C(F)(F)F)c2)c2ccccc2Cc2ccccc2)CC1
The XC50 of the first is 1.9-fold lower: 587 nM for the first, 1130 nM for the second.

`COc1ccc2nccc([C@@H](O)CN3CCC(NC(=O)C(=Cc4ccc(Cl)cc4Cl)c4ccc(-c5ccccc5)cc4)CC3)c2c1` and `O=C(N[C@H]1CCN(Cc2ccc(OC3CCN(Cc4ccccc4)CC3)cc2)C1)c1ccc(Cl)c(Cl)c1` are within 1.5-fold of each other in XC50: 993 nM for the first, 728 nM for the second.

Compared with `COC(=O)c1cc(C(=O)CN(Cc2ccccc2)C(C)C)ccc1O`, `CSc1cccc(NC(=O)c2cc3ccccc3oc2=O)c1` is 4.6-fold higher in XC50: 183 nM for the first, 833 nM for the second.

First: Cn1c(Nc2cc(C(C)(C)C)on2)nc2cc(Nc3ccnc(Nc4cccc(S(=O)(=O)N5CCOCC5)c4)n3)ccc21
Second: COc1cc(Nc2nccc(N3CCC(NS(=O)(=O)c4ccc(NC(C)=O)cc4)CC3)n2)cc(OC)c1OC
The XC50 of the first is 1.8-fold lower: 533 nM for the first, 965 nM for the second.

First: COC(=O)CN(C(=O)/C=C/c1ccc(Cl)c(Cl)c1)C1CCC(CN2CCC(c3c[nH]c4ccccc34)CC2)CC1 (stereo unspecified)
Second: O=S(=O)(c1ccc2cc[nH]c2c1)N1CCC[C@@H]1CCN1CCC(c2c[nH]c3cnccc23)CC1
The XC50 of the first is 2-fold lower: 507 nM for the first, 1020 nM for the second.

Compared with `Cc1ccc(N2CCN(C(=O)c3cccc(-c4cncc5nc(-c6ccco6)n(C)c45)c3)CC2)nc1`, `Cc1cccc2nc(-c3cccc(-c4cccc(NC(=O)c5cncn5C)c4)c3)[nH]c12` is 3.6-fold lower in XC50: 596 nM for the first, 167 nM for the second.

`CS(=O)(=O)c1ccc(CCNCc2ccc(-c3ccc(CN(C(=O)C4CC(=O)c5ccccc54)C4CCN(Cc5ccccc5)CC4)cc3)nc2)cc1` (stereo unspecified) and `Cc1nn(-c2ccccc2)nc1C(=O)N(Cc1ccc(-c2ccc(CNCCc3ccc(S(C)(=O)=O)cc3)cn2)cc1)C(C)CN(C)C` (stereo unspecified) are within 1.5-fold of each other in XC50: 592 nM for the first, 682 nM for the second.

First: CN(C)CCOc1ccc(-c2cc(-c3ccc(Cl)c(O)c3)c(-c3ccnc(N)n3)o2)cc1
Second: COCCNCc1cccc(-c2ccc3c(Nc4cc(O)c(Cl)cc4F)ccnc3c2)c1
The XC50 of the first is 12-fold higher: 1320 nM for the first, 114 nM for the second.

First: O=C(Nc1ccccc1Br)c1cn(-c2ccccc2)nc1-c1cccc([N+](=O)[O-])c1
Second: O=C(Nc1ccc2c(c1)CCN(C1CCC1)CC2)c1cn(-c2ccccc2)nc1-c1ccccc1
The XC50 of the first is 1.6-fold higher: 1320 nM for the first, 808 nM for the second.

`CCOc1ccc(-c2nonc2NC(=O)CC(C)C)cc1OCC` and `CCn1c(-c2nonc2N)nc2c(-c3cccc(NC(=O)Nc4cccc(OC)c4)c3)ncc(OCCCN)c21` are within 1.5-fold of each other in XC50: 977 nM for the first, 769 nM for the second.

`O=C(Nc1nc2cc(S(=O)(=O)NCc3ccc(Cl)c(Cl)c3)ccc2n1CCCN1CCCC1)c1ccc(Cl)cc1` and `O=C(Nc1cccc(-c2cccc(CN3CCCC3)c2)c1)c1ccc(Cl)cc1` are within 1.5-fold of each other in XC50: 939 nM for the first, 684 nM for the second.

`O=C(NCCN1CCC(c2ccncc2)CC1)c1ccc(Nc2nccc(Nc3ccc(Oc4ccccc4)cc3)n2)cc1` and `O=C(NCCCCN1CCC(c2ccc(OC(F)(F)F)cc2)CC1)c1ccc(NC(=O)c2ccc(Cl)cc2)cc1` are within 1.5-fold of each other in XC50: 724 nM for the first, 629 nM for the second.

`CC1(C)NC(N)=NC(=N)N1OCCCOc1cccc2ccccc12` and `CC1(C)NC(N)=NC(=N)N1OCCCOc1ccccc1Cl` are the same in XC50: 3.2 nM for the first, 3.2 nM for the second.

Going from `O=S(=O)(NCCN1CCCC1)c1ccc(-c2ccc(CNCc3ccc(F)cc3)cc2)cc1F` to `O=S(=O)(NCCN1CCCC1)c1cccc(-c2ccc(CNC3Cc4ccccc4C3)cc2)c1`, the XC50 falls from 1280 nM to 660 nM (1.9-fold).

`COc1ccc(-c2cc(-c3nc4cc(C(=O)N5CCOCC5)ccc4[nH]3)c(=O)n(C)c2)cc1OC` and `Cc1cnc(C(=O)Nc2cccc(-c3cccc(-c4nc5cc(F)ccc5[nH]4)c3)c2)cn1` are within 1.5-fold of each other in XC50: 863 nM for the first, 771 nM for the second.

`NS(=O)(=O)c1cccc(Br)c1` and `O=C(CCC1CCCCC1=O)c1ccccc1` (stereo unspecified) are within 1.5-fold of each other in XC50: 888 nM for the first, 766 nM for the second.

`COc1ccc2c(=NN=CC=Cc3ccccc3)cc(C)[nH]c2c1` and `COc1ccc(/N=[N+](\[O-])c2ccccc2/[N+]([O-])=N/c2ccc(OC)cc2)cc1` are within 1.5-fold of each other in XC50: 842 nM for the first, 987 nM for the second.

First: N=C(N)NCCCC(=O)NCC(N)=O
Second: CCOC(=O)C(CO)NC(=O)c1ccc([N+](=O)[O-])o1 (stereo unspecified)
The XC50 of the first is 1.8-fold lower: 165 nM for the first, 289 nM for the second.

`Cc1cc(N)ncc1-c1ccc(NC(=O)Nc2cc(C(F)(F)F)ccc2F)cc1` and `FC(F)(F)c1cccc(CCNc2nccc(NCc3ccc(Cl)cc3Cl)n2)c1` are within 1.5-fold of each other in XC50: 698 nM for the first, 858 nM for the second.

`Cc1ccccc1C1CCN(c2ncc(C(=O)Nc3ccccc3)cc2Cl)CC1` and `COc1ccc(NC(=O)/C=C/c2ccccc2Cl)cc1OCCN1CCC(c2nc3ccccc3[nH]2)CC1` are within 1.5-fold of each other in XC50: 1010 nM for the first, 858 nM for the second.

Going from `O=C(Nc1ccc(C(=O)Oc2cccc3ccccc23)cc1)N[C@@H](Cc1ccc(O)cc1)C(=O)NC1CCN(Cc2ccc(O)cc2)C1` (stereo partly specified) to `c1ccc(CN2CCC(NCc3ccccc3-c3cccc(CNCc4ccc5c(c4)OCO5)c3)CC2)cc1`, the XC50 falls from 906 nM to 573 nM (1.6-fold).

`CCCCCCCN(Cc1ccc(OC(C)(C)C(=O)OCC)cc1)C(=O)Cc1ccc(F)cc1F` and `CCOC(=O)c1ccc2[nH]c(-c3ccc(C(=O)NCc4ccc(C(C)(C)C)cc4)cc3)nc2c1` are within 1.5-fold of each other in XC50: 1030 nM for the first, 847 nM for the second.

`CC(C)COc1ccc(Cl)cc1Nc1nc(-c2nc3ccccc3[nH]2)cs1` and `COC(=O)c1ccc2nc(-c3ccc(C(=O)NCc4ccc(Cl)c(Cl)c4)cc3)[nH]c2c1` are within 1.5-fold of each other in XC50: 877 nM for the first, 852 nM for the second.

`O=C(NCCCCN1CC=C(c2ccc3c(c2OCC2CC2)CCCC3)CC1)c1ccc(-c2ccc(C(F)(F)F)cc2)cc1` and `N#CCOc1c(C2CCN(CCCCNC(=O)c3ccc(-c4ccc(C(F)(F)F)cc4)cc3)CC2)ccc2c1CCCC2` are within 1.5-fold of each other in XC50: 540 nM for the first, 762 nM for the second.

Compared with `Fc1ccc2[nH]c(-c3ccc(-c4ccc(CNCC5CCCO5)cc4)cc3)nc2c1` (stereo unspecified), `Cc1cccc2nc(-c3cccc(-c4cccc(CNCCc5ccncc5)c4)c3)[nH]c12` is 3.2-fold lower in XC50: 440 nM for the first, 139 nM for the second.

`COc1ccc(C2C(C(=O)Nc3ccc(C)cc3Br)c3ccccc3C(=O)N2C)cc1` (stereo unspecified) and `Cc1cccc2nc(-c3cccc(-c4cccc(NC(=O)CC5NC(=O)c6ccccc65)c4)c3)[nH]c12` (stereo unspecified) are within 1.5-fold of each other in XC50: 941 nM for the first, 1030 nM for the second.

`Cc1nc(-c2cccc(Nc3nccc(NCC(O)c4cccc(C(F)(F)F)c4)n3)c2)cs1` (stereo unspecified) and `O=C(Cc1ccc(Nc2nccc(Nc3cccc4[nH]ncc34)n2)cc1)Nc1ccc(C(F)(F)F)cc1` are within 1.5-fold of each other in XC50: 627 nM for the first, 888 nM for the second.

`CCCCOc1ccc(C(O)C(CN2CCCCC2)c2ccccc2)cc1` (stereo unspecified) and `Cn1cc(CN2CCC(OC(c3ccccc3)c3ccc(Cl)cc3)CC2)cn1` (stereo unspecified) are within 1.5-fold of each other in XC50: 893 nM for the first, 839 nM for the second.

`Cc1ccc(NC(=O)c2ccc3ncccc3c2)cc1OC1CCN(CCC(C)C)CC1` and `COCCN1CCC(CNCC(C)(C)c2nc(-c3ccc(Cl)c(O)c3)c(-c3ccncc3)[nH]2)CC1` are within 1.5-fold of each other in XC50: 694 nM for the first, 753 nM for the second.

`COc1cc(-c2cc3cc(Cl)c(Cl)cc3[nH]2)ccc1C(=O)NCCC1CCCN1C` (stereo unspecified) and `COC(C(=O)OCCC1CCCN1C)(c1ccccc1)c1ccccc1` (stereo unspecified) are within 1.5-fold of each other in XC50: 969 nM for the first, 970 nM for the second.

First: CCOC(=O)c1ccc(-c2cnoc2-c2cc(CC)c(OC)cc2O)o1
Second: CCCNC[C@@H](O)[C@H](Cc1ccccc1)NC(=O)c1cc2c3c(c1)c(CC)cn3CCS(=O)(=O)N2C
The XC50 of the first is 2.7-fold higher: 275 nM for the first, 101 nM for the second.

`CCn1c(-c2nonc2N)nc2c(-c3cccc(NC(=O)Nc4ccccc4Cl)c3)ncc(OCCCN)c21` and `Cc1cccc2nc(-c3cccc(-c4cccc(NC(=O)CCc5c[nH]cn5)c4)c3)[nH]c12` are within 1.5-fold of each other in XC50: 671 nM for the first, 553 nM for the second.

`Cc1cc(-c2ccnc(Nc3cccc(C#N)c3)n2)cc(C)c1O` and `O=C(Nc1cccnc1)c1cc(C(=O)Nc2cccnc2)cc([N+](=O)[O-])c1` are within 1.5-fold of each other in XC50: 924 nM for the first, 1120 nM for the second.

First: CCN1CCN(C(=O)NC(C(=O)N2CCCC(COc3ccc(Cc4ccccc4)cc3)C2)c2cccs2)C(=O)C1=O (stereo unspecified)
Second: CCCc1cn2c3c(cc(C(=O)N[C@@H](Cc4ccccc4)[C@H](O)CNC4CCCCC4)cc13)N(C)S(=O)(=O)CC2
The XC50 of the first is 7.2-fold higher: 479 nM for the first, 66.9 nM for the second.

`COc1ccc(CN2CCN(C(=O)c3cccs3)CC2)c(O)c1` and `O=C(Nc1ccc(S(=O)(=O)NCCCN2CCOCC2)cc1)c1cc(-c2ccccc2)[nH]n1` are within 1.5-fold of each other in XC50: 838 nM for the first, 769 nM for the second.

`Cc1nc(-c2ccc(C(F)(F)F)cn2)sc1C(=O)N1CCc2cc3nccc(N4CCN5CCC[C@H]5C4)c3cc21` and `CC(C)(C)c1nn(-c2ccccc2)c2[nH]c(=O)c(CNC3CCCC3)cc12` are within 1.5-fold of each other in XC50: 784 nM for the first, 850 nM for the second.

Going from `COc1cc(SC)c(Br)cc1-c1nc2ccncc2[nH]1` to `Cc1ccc2oc3cc(-c4nnn[nH]4)ccc3c(=O)c2c1`, the XC50 falls from 1100 nM to 89.4 nM (12-fold).

`COc1cc(Cc2c(C)nc3nc(N)nc(N)c3c2C)c(Br)c(OC)c1OC` and `Clc1cccc(C23N/C(=N\c4nc5ccccc5[nH]4)NC2(c2ccccc2)N/C(=N\c2nc4ccccc4[nH]2)N3)c1` (stereo unspecified) are within 1.5-fold of each other in XC50: 404 nM for the first, 519 nM for the second.

Compared with `O=C(Nc1cccc(Cl)c1)N(CCCn1ccnc1)Cc1csc(-c2ccc(CNCc3ccccc3)cc2)n1`, `c1ccc(CCNCc2cccc(-c3ccccc3CNCc3ccc4c(c3)OCO4)c2)nc1` is 1.8-fold higher in XC50: 538 nM for the first, 968 nM for the second.
